# Species on record: Homo sapiens
# Test: Half life in human assessed as ZD-6126-phenol
# Type: ADME, organism-based
# Conditions: in vivo
structure (smiles),measurement,value
COc1cc2c(c(OC)c1OC)-c1ccc(OP(=O)(O)O)cc1[C@@H](NC(C)=O)CC2 [ZD-6126],t1/2,2 h

# — ChEMBL document CHEMBL1142931, “Vascular disrupting agents” (Bioorg Med Chem, 2007)
